# In ChEMBL document CHEMBL5625251, “Anti-influenza virus activities and mechanism of antrafenine analogs” (Eur J Med Chem, 2023):
# Active and inactive are the calls of the source. The rule behind the calls is not given here.
# Assays:
# [1] = Cytotoxicity against MDCK cells assessed as reduction in cell viability incubated for 48 hrs by MTT assay; assay type: toxicity, cell-based, Canis lupus familiaris; conditions: dog
# [2] = tested on: MDCK; experiment: Cytotoxicity against MDCK cells assessed as reduction in cell viability at 12.5 uM incubated for 48 hrs by MTT assay; assay type: toxicity, cell-based, Canis lupus familiaris; conditions: dog
# [3] = tested on: Influenza A virus; experiment: Antiviral activity against Influenza A virus A/WSN/33(H1N1) infected in MDCK cells assessed as inhibition of viral growth at 100 uM pre-infected for 1 hr followed by compound addition and measured 24 hrs post infection by plaque assay relative to control; assay type: functional; conditions: time 23 hrs
# [4] = Selectivity index, ratio of CC50 for cytotoxicity against MDCK cells assessed as reduction in cell viability to IC50 for antiviral activity against Influenza A virus A/PR/8/34 infected in MDCK cells MOI 0.01 assessed as inhibition of viral growth; assay type: toxicity, cell-based; conditions: dog, read-out: Ratio CC50/IC50
# [5] = tested on: Influenza A virus; experiment: Antiviral activity against Influenza A virus A/WSN/33(H1N1) infected in chicken erythrocytes assessed as reduction in Haemagglutinin level preincubated for 30 mins followed by viral infection and measured after 40 mins; assay type: functional, organism-based; conditions: Erythrocyte, time 70.0 min
# [6] = Selectivity index, ratio of CC50 for cytotoxicity against MDCK cells assessed as reduction in cell viability to IC50 for antiviral activity against Influenza A virus A/HK/1/68 infected in MDCK cells MOI 0.01 assessed as inhibition of viral growth; assay type: toxicity, cell-based; conditions: dog, read-out: Ratio CC50/IC50
# [7] = tested on: Influenza A virus; experiment: Antiviral activity against Influenza A virus A/WSN/33(H1N1) infected in MDCK cells MOI 0.1 assessed as reduction in viral titre at 100 uM pre-infected with cells for 6 hrs followed by compound addition and measured after 6 to 8 hrs post infection by time of addition assay; assay type: functional, organism-based
# [8] = Cytotoxicity against African green monkey Vero cells assessed as reduction in cell viability incubated for 48 hrs by MTT assay; assay type: toxicity, cell-based; conditions: chlorocebus sabaeus
# [9] = tested on: Influenza A virus; experiment: Antiviral activity against Influenza A virus B/Florida/4/06 infected in MDCK cells MOI 0.01 assessed as inhibition of viral growth pre-infected for 1 hr followed by compound addition and measured 24 hrs post infection by plaque assay; assay type: functional, organism-based; conditions: B/Florida/4/06, MDCK
# [10] = tested on: Influenza A virus; experiment: Antiviral activity against Influenza A virus A/WSN/33(H1N1) infected in MDCK cells MOI 0.1 assessed as reduction in viral titre at 100 uM pre-infected with cells for 6 hrs followed by compound addition and measured after 2 hrs post infection by time of addition assay; assay type: functional, organism-based
# [11] = tested on: Influenza A virus; experiment: Antiviral activity against Influenza A virus A/WSN/33(H1N1) infected in chicken erythrocytes assessed as reduction in neuraminidase level incubated for 2 hrs; assay type: functional, organism-based; conditions: Erythrocyte
# [12] = tested on: Influenza A virus; experiment: Antiviral activity against Influenza A virus A/WSN/33(H1N1) infected in MDCK cells assessed as inhibition of viral growth pre-infected for 1 hr followed by compound addition and measured 24 hrs post infection by plaque assay; assay type: functional, organism-based
# [13] = Inhibition of Influenza A virus A/WSN/33(H1N1) Ribonucleoprotein transfected in Vero cells incubated for 48 hrs by spectrophotometer analysis; assay type: cell-based
# [14] = Selectivity index, ratio of CC50 for cytotoxicity against MDCK cells assessed as reduction in cell viability to IC50 for antiviral activity against Influenza A virus B/Florida/4/06 infected in MDCK cells MOI 0.01 assessed as inhibition of viral growth; assay type: toxicity, cell-based; conditions: dog, read-out: Ratio CC50/IC50
# [15] = Selectivity index, ratio of CC50 for cytotoxicity against African green monkey Vero cells assessed as reduction in cell viability to IC50 for inhibition of Influenza A virus A/WSN/33(H1N1) Ribonucleoprotein transfected in Vero cells; assay type: toxicity, cell-based; conditions: read-out: Ratio CC50/IC50
# [16] = tested on: Influenza A virus; experiment: Antiviral activity against Influenza A virus A/WSN/33(H1N1) infected in MDCK cells assessed as reduction in virus-induced cytopathic effect at 25 uM pre-infected with cells for 1 hrs followed by compound addition and measured after 2 days by MTT assay; assay type: functional, organism-based; conditions: time 2.0 day
# [17] = tested on: Influenza A virus; experiment: Antiviral activity against Influenza A virus A/WSN/33(H1N1) infected in MDCK cells MOI 0.1 assessed as reduction in viral titre at 100 uM pre-infected with cells for 6 hrs followed by compound addition and measured after 4 to 6 hrs post infection by time of addition assay; assay type: functional, organism-based
# [18] = tested on: Influenza A virus; experiment: Antiviral activity against Influenza A virus A/HK/1/68 infected in MDCK cells MOI 0.01 assessed as inhibition of viral growth pre-infected for 1 hr followed by compound addition and measured 24 hrs post infection by plaque assay; assay type: functional, organism-based; conditions: A/HK/1/68, MDCK
# [19] = tested on: Influenza A virus; experiment: Antiviral activity against Influenza A virus A/WSN/33(H1N1) infected in MDCK cells MOI 0.1 assessed as reduction in viral titre at 100 uM pre-infected with cells for 6 hrs followed by compound addition and measured after 2 to 4 hrs post infection by time of addition assay; assay type: functional, organism-based
# [20] = Selectivity index, ratio of CC50 for cytotoxicity against MDCK cells assessed as reduction in cell viability to IC50 for antiviral activity against Influenza A virus A/WSN/33(H1N1) infected in MDCK cells assessed as inhibition of viral growth; assay type: toxicity, cell-based; conditions: dog, read-out: Ratio CC50/IC50
# [21] = tested on: Influenza A virus; experiment: Antiviral activity against Influenza A virus A/PR/8/34 infected in MDCK cells MOI 0.01 assessed as inhibition of viral growth pre-infected for 1 hr followed by compound addition and measured 24 hrs post infection by plaque assay; assay type: functional, organism-based; conditions: A/PR/8/34, MDCK
# [22] = tested on: Influenza A virus; experiment: Antiviral activity against Influenza A virus A/WSN/33(H1N1) infected in MDCK cells assessed as inhibition of viral growth 12.5 uM pre-infected for 1 hr followed by compound addition and measured 24 hrs post infection by plaque assay relative to control; assay type: functional; conditions: time 23 hrs
# [23] = tested on: Influenza A virus; experiment: Antiviral activity against Influenza A virus A/WSN/33(H1N1) infected in MDCK cells assessed as inhibition of viral growth at 50 uM pre-infected for 1 hr followed by compound addition and measured 24 hrs post infection by plaque assay relative to control; assay type: functional; conditions: time 23 hrs
# [24] = tested on: Influenza A virus; experiment: Antiviral activity against Influenza A virus A/WSN/33(H1N1) infected in MDCK cells assessed as inhibition of viral growth at 6.25 uM pre-infected for 1 hr followed by compound addition and measured 24 hrs post infection by plaque assay relative to control; assay type: functional; conditions: time 23 hrs
smiles,measurement,setting,value
O=C(Nc1ccccc1)c1ccccc1Nc1ccnc2cc(C(F)(F)F)ccc12,CC50 at 48 h,[1],> 100 µM
O=C(NC12CC3CC(CC(C3)C1)C2)c1ccccc1Nc1ccnc2cc(C(F)(F)F)ccc12,Activity,[2],Toxic
Cc1ccccc1N1CCN(CCNC(=O)c2ccccc2Nc2ccnc3ccc(Cl)cc23)CC1,Activity,[2],Toxic
O=C(NCCN1CCN(c2cccc(Cl)c2Cl)CC1)c1ccccc1Nc1ccnc2ccc(Cl)cc12,CC50 at 48 h,[1],> 50 µM
NC(=O)c1ccccc1Nc1ccnc2ccc(Cl)cc12,inhibition at 100 µM,[3],22.5%
same,CC50 at 48 h,[1],> 100 µM
O=C(Nc1cccc([N+](=O)[O-])c1)c1ccccc1Nc1ccnc2cc(C(F)(F)F)ccc12,selectivity ratio,[4],> 18
same,Activity,[5],inactive
same,inhibition at 100 µM,[3],99.8%
same,selectivity ratio,[6],> 12
same,Activity,[7],inactive
same,CC50 at 48 h,[8],> 100 µM
same,IC50,[9],12 µM
same,Activity,[10],Active
same,CC50 at 48 h,[1],> 100 µM
same,Activity,[11],inactive
same,IC50,[12],5.53 µM
same,IC50,[13],14 µM
same,selectivity ratio,[14],> 8
same,selectivity ratio,[15],> 7
same,Activity,[16],Active
same,Activity,[17],Active
same,IC50,[18],8.5 µM
same,Activity,[19],Active
same,selectivity ratio,[20],> 18
same,IC50,[21],5.5 µM
O=C(NCC(=O)N1CCN(c2cccc(Cl)c2Cl)CC1)c1ccccc1Nc1ccnc2ccc(Cl)cc12,inhibition at 12.5 µM,[22],24%
same,CC50 at 48 h,[1],> 50 µM
CNC(=O)c1ccccc1Nc1ccnc2cc(C(F)(F)F)ccc12,inhibition at 100 µM,[3],20%
same,CC50 at 48 h,[1],> 100 µM
O=C(NCCN1CCN(c2ccccc2Cl)CC1)c1ccccc1Nc1ccnc2ccc(Cl)cc12,Activity,[2],Toxic
O=C(NCCN1CCN(c2ccccc2OC(F)(F)F)CC1)c1ccccc1Nc1ccnc2cc(C(F)(F)F)ccc12,CC50 at 48 h,[1],> 100 µM
O=C(CNC(=O)c1ccccc1Nc1ccnc2ccc(Cl)cc12)NC1CCCCC1,inhibition at 12.5 µM,[22],44.4%
same,CC50 at 48 h,[1],21.6 µM
O=C(NC12CC3CC(CC(C3)C1)C2)c1ccccc1Nc1ccnc2ccc(Cl)cc12,Activity,[2],Toxic
O=C(CNC(=O)c1ccccc1Nc1ccnc2cc(C(F)(F)F)ccc12)NCCCN1CCOCC1,CC50 at 48 h,[1],> 50 µM
same,inhibition at 50 µM,[23],94.9%
CN(C)CCNC(=O)c1ccccc1Nc1ccnc2ccc(Cl)cc12,CC50 at 48 h,[1],19.9 µM
O=C(NCCCO)c1ccccc1Nc1ccnc2ccc(Cl)cc12,inhibition at 100 µM,[3],69.5%
same,CC50 at 48 h,[1],> 100 µM
Cc1ccc(N2CCN(CCNC(=O)c3ccccc3Nc3ccnc4cc(C(F)(F)F)ccc34)CC2)c(C)c1,CC50 at 48 h,[1],> 100 µM
O=C(Nc1ccc(Br)cc1)c1ccccc1Nc1ccnc2cc(C(F)(F)F)ccc12,Activity,[2],Toxic
same,inhibition at 6.25 µM,[24],74.5%
O=C(NCc1ccccc1)c1ccccc1Nc1ccnc2ccc(Cl)cc12,CC50 at 48 h,[1],45.3 µM
O=C(NCC(=O)N1CCOCC1)c1ccccc1Nc1ccnc2cc(C(F)(F)F)ccc12,inhibition at 100 µM,[3],60.6%
same,CC50 at 48 h,[1],> 100 µM
Cc1ccccc1N1CCN(C(=O)CNC(=O)c2ccccc2Nc2ccnc3ccc(Cl)cc23)CC1,inhibition at 12.5 µM,[22],55.8%
same,CC50 at 48 h,[1],> 100 µM
O=C(NCCCO)c1ccccc1Nc1ccnc2cc(C(F)(F)F)ccc12,inhibition at 100 µM,[3],62.6%
same,CC50 at 48 h,[1],> 100 µM
